Counter-ions that a name gives are not always drawn. Blank lines part the entries; values can stand above or below the compound they belong to.
Target: T1, IRE1α (Homo sapiens, UniProt O75460, D688N)
T1 construct: containing the kinase and RNase domains (KR, AA G547-1L977, D688N); made in house; host or cells: Sf9 insect cells
Assay: IRE1α TR-FRET competition binding assay (IRE1α HTRF)
Settings: His-tagged IRE1α kinase dead construct (KR, D688N) 0.25 nM; Alexa fluor 647-labeled ATP competitive probe 2 nM; one hour at room temperature; read-out: IRE1α (alpha) HTRF (IC50)
Experimental: Example 59. IRE1α TR-FRET Competition Binding Assay
To determine the affinity of compound binding to the kinase domain of IRE1α, a time-resolved fluorescence resonance energy transfer (TR-FRET) competition assay was used.
A His-tagged IRE1α kinase dead construct containing the kinase and RNase domains (KR, AA G547-1L977, D688N) was expressed in Sf9 insect cells. The purified protein (final concentration 0.25 nM) was pre-incubated with anti-His Europium labeled antibody (Life Technologies PV5596, final concentration 2 nM) for one hour at 4° C. in TR-FRET Assay Buffer (50 mM HEPES, pH 7.5, 10 mM MgCl2, 0.083 mM Brij 35, 1 mM DTT, and 0.1% bovine gamma globulin) prior to addition to test compounds. An Alexa fluor 647-labeled probe based on an ATP competitive inhibitor was added to a final concentration of 2 nM. Reactions were carried out for one hour at room temperature in a final volume of 20 μL in 384 well white ProxiPlates (Perkin Elmer 6008289). Binding of the probe to the IRE1α protein was detected in an Envision instrument (PerkinElmer) equipped with a TRF laser option and a LANCE/Delfia Dual/Bias D400/D630 mirror (Ex 347 nm, 1st Em 665 nm, 2nd Em 615 nm).

T1 sequence (O75460 547-977 D688N): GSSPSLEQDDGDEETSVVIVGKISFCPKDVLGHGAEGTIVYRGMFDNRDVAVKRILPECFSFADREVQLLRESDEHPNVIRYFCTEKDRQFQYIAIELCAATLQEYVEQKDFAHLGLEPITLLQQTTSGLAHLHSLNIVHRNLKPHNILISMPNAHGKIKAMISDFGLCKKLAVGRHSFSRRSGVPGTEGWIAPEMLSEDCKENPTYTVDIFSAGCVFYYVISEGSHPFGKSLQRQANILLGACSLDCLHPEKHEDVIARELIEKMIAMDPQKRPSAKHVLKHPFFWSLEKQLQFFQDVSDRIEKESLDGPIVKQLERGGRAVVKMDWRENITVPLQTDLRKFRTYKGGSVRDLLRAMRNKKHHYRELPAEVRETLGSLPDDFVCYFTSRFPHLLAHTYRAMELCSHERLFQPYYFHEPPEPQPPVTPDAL

Structure (SMILES): CC(Oc1nc2nc(N[C@@H]3CNC[C@@H](F)C3)ncc2cc1-c1ccc(NS(=O)(=O)Cc2ccccc2)c(F)c1F)C(F)F (single isomer, unassigned) [Compound 102]
- IC50: 1.1 nM

Structure (SMILES): CC(Oc1nc2nc(N[C@@H]3CNC[C@@H](F)C3)ncc2cc1-c1ccc(NS(=O)(=O)Cc2ccccc2)c(F)c1F)C(F)F (single isomer, unassigned) [Compound 103]
- IC50: 1.1 nM

Structure (SMILES): O=S(=O)(Cc1ccccc1)Nc1c(F)cc(-c2cc3cnc(N[C@@H]4CNC[C@@H](F)C4)nc3nc2OC2CCOC2)c(F)c1F (single isomer, unassigned) [Compound 104]
- IC50: 0.66 nM

Structure (SMILES): O=S(=O)(Cc1ccccc1)Nc1c(F)cc(-c2cc3cnc(N[C@@H]4CNC[C@@H](F)C4)nc3nc2OC2CCOC2)c(F)c1F (single isomer, unassigned) [Compound 105]
- IC50: 0.39 nM

Structure (SMILES): O=S(=O)(Cc1ccccc1)Nc1ccc(-c2ccc3nc(N[C@@H]4CNC[C@@H](F)C4)ncc3n2)cc1F [Compound 100, N-(2-Fluoro-4-(2-(((3S,5S)-5-fluoropiperidin-3-yl)amino)pyrido[3,2-d]pyrimidin-6-yl)phenyl)-1-phenylmethanesulfonamide]
- IC50: 0.89 nM

Structure (SMILES): O=S(=O)(Cc1ccccc1)Nc1ccc(-c2cc3cnc(N[C@@H]4CNC[C@@H](F)C4)nc3cn2)cc1F [Compound 101, N-(2-Fluoro-4-(2-(((3S,5S)-5-fluoropiperidin-3-yl)amino)pyrido[3,4-d]pyrimidin-6-yl)phenyl)-1-phenylmethanesulfonamide]
- IC50: 3 nM

Structure (SMILES): Cc1cc(-c2ccc(NS(=O)(=O)Cc3ccccc3)c(F)c2)nc2cnc(N[C@@H]3CNC[C@@H](F)C3)nc12 [Compound 106, N-(2-Fluoro-4-(2-(((3S,5S)-5-fluoropiperidin-3-yl)amino)-8-methylpyrido[3,2-d]pyrimidin-6-yl)phenyl)-1-phenylmethanesulfonamide]
- IC50: 0.3 nM

Structure (SMILES): Cc1cc(-c2ccc(NS(=O)(=O)CCC(F)(F)F)c(F)c2)nc2cnc(N[C@H]3CC[C@H](N(C)C)CC3)nc12 [Compound 107, N-(4-(2-(((1r,4r)-4-(Dimethylamino)cyclohexyl)amino)-8-methylpyrido[3,2-d]pyrimidin-6-yl)-2-fluorophenyl)-3,3,3-trifluoropropane-1-sulfonamide]
- IC50: 0.2 nM

Structure (SMILES): Cc1cc(-c2cc(F)c(NS(=O)(=O)Cc3ccccc3)c(F)c2)nc2cnc(N[C@@H]3CNC[C@@H](F)C3)nc12 [Compound 108, N-(2,6-Difluoro-4-(2-(((3S,5S)-5-fluoropiperidin-3-yl)amino)-8-methylpyrido[3,2-d]pyrimidin-6-yl)phenyl)-1-phenylmethanesulfonamide]
- IC50: 0.2 nM

Second part, the compound after the results:

- IC50: 5.7 nM
Structure (SMILES): O=S(=O)(Cc1ccccc1)Nc1ccc(-c2cnc3nc(N[C@@H]4CNC[C@@H](F)C4)ncc3c2)cc1F [Compound 109, N-(2-Fluoro-4-(2-(((3S,5S)-5-fluoropiperidin-3-yl)amino)pyrido[2,3-d]pyrimidin-6-yl)phenyl)-1-phenylmethanesulfonamide]

- IC50: 1.1 nM
Structure (SMILES): Cc1cc(-c2ccc(NS(=O)(=O)CCC(F)(F)F)c(F)c2)nc2cnc(N[C@@H]3CNC[C@@H](F)C3)nc12 [Compound 110, 3,3,3-Trifluoro-N-(2-fluoro-4-(2-(((3S,5S)-5-fluoropiperidin-3-yl)amino)-8-methylpyrido[3,2-d]pyrimidin-6-yl)phenyl)propane-1-sulfonamide]

- IC50: 2.1 nM
Structure (SMILES): CCCS(=O)(=O)Nc1ccc(-c2cc(C)c3nc(N[C@@H]4CNC[C@@H](F)C4)ncc3n2)cc1F [Compound 111, N-(2-Fluoro-4-(2-(((3S,5S)-5-fluoropiperidin-3-yl)amino)-8-methylpyrido[3,2-d]pyrimidin-6-yl)phenyl)propane-1-sulfonamide]

- IC50: 0.32 nM
Structure (SMILES): CCCS(=O)(=O)Nc1ccc(-c2cc(C)c3nc(N[C@H]4CC[C@H](N(C)C)CC4)ncc3n2)cc1F [Compound 112, N-(4-(2-(((1,4-trans)-4-(Dimethylamino)cyclohexyl)amino)-8-methylpyrido[3,2-d]pyrimidin-6-yl)-2-fluorophenyl)propane-1-sulfonamide formate]

- IC50: 0.17 nM
Structure (SMILES): Cc1cc(-c2ccc(NS(=O)(=O)CCC(C)(F)F)c(F)c2)nc2cnc(N[C@H]3CC[C@H](N(C)C)CC3)nc12 [Compound 113, N-(4-(2-(((1,4-trans)-4-(Dimethylamino)cyclohexyl)amino)-8-methylpyrido[3,2-d]pyrimidin-6-yl)-2-fluorophenyl)-3,3-difluorobutane-1-sulfonamide formate]

- IC50: 0.08 nM
Structure (SMILES): CCc1cc(-c2ccc(NS(=O)(=O)CCC(F)(F)F)c(F)c2)nc2cnc(N[C@H]3CC[C@H](N(C)C)CC3)nc12 [Compound 114, N-(4-(2-(((1,4-trans)-4-(Dimethylamino)cyclohexyl)amino)-8-ethylpyrido[3,2-d]pyrimidin-6-yl)-2-fluorophenyl)-3,3,3-trifluoropropane-1-sulfonamide]

- IC50: 0.26 nM
Structure (SMILES): Cc1cc(-c2ccc(NS(=O)(=O)Cc3ccc(F)cc3F)c(F)c2)nc2cnc(N[C@@H]3CNC[C@@H](F)C3)nc12 [Compound 115, 1-(2,4-Difluorophenyl)-N-(2-fluoro-4-(2-(((3S,5S)-5-fluoropiperidin-3-yl)amino)-8-methylpyrido[3,2-d]pyrimidin-6-yl)phenyl)methanesulfonamide]

- IC50: 0.13 nM
Structure (SMILES): Cc1cc(-c2ccc(NS(=O)(=O)Cc3ccc(C#N)cc3)c(F)c2)nc2cnc(N[C@@H]3CNC[C@@H](F)C3)nc12 [Compound 116, 1-(4-Cyanophenyl)-N-(2-fluoro-4-(2-(((3S,5S)-5-fluoropiperidin-3-yl)amino)-8-methylpyrido[3,2-d]pyrimidin-6-yl)phenyl)methanesulfonamide formate]

- IC50: 0.11 nM
Structure (SMILES): CCC(F)(F)CS(=O)(=O)Nc1ccc(-c2cc(C)c3nc(N[C@H]4CC[C@H](N(C)C)CC4)ncc3n2)cc1F [Compound 117, N-(4-(2-(((1,4-trans)-4-(Dimethylamino)cyclohexyl)amino)-8-methylpyrido[3,2-d]pyrimidin-6-yl)-2-fluorophenyl)-2,2-difluorobutane-1-sulfonamide formate]

- IC50: 22 nM
Structure (SMILES): COc1cc(-c2ccc(NS(=O)(=O)CCC(F)(F)F)c(F)c2)nc2cnc(N[C@H]3CC[C@H](N(C)C)CC3)nc12 [Compound 118, N-(4-(2-(((1,4-trans)-4-(Dimethylamino)cyclohexyl)amino)-8-methoxypyrido[3,2-d]pyrimidin-6-yl)-2-fluorophenyl)-3,3,3-trifluoropropane-1-sulfonamide formate]

- IC50: 0.39 nM
Structure (SMILES): CCc1cc(-c2ccc(NS(=O)(=O)CCC(F)(F)F)c(F)c2)nc2cnc(N[C@@H]3CNC[C@@H](F)C3)nc12 [Compound 119, N-(4-(8-Ethyl-2-(((3S,5S)-5-fluoropiperidin-3-yl)amino)pyrido[3,2-d]pyrimidin-6-yl)-2-fluorophenyl)-3,3,3-trifluoropropane-1-sulfonamide formate]

- IC50: 0.25 nM
Structure (SMILES): Cc1cc(-c2ccc(NS(=O)(=O)CCC(F)(F)F)c(Cl)c2)nc2cnc(N[C@H]3CC[C@H](N(C)C)CC3)nc12 [Compound 120, N-(2-Chloro-4-(2-(((1,4-trans)-4-(dimethylamino)cyclohexyl)amino)-8-methylpyrido[3,2-d]pyrimidin-6-yl)phenyl)-3,3,3-trifluoropropane-1-sulfonamide]

From patent publication US20220204498A1, “PYRIDO-PYRIMIDINYL COMPOUNDS AND METHODS OF USE” (Genentech, Inc., priority 2019, published 2022)
